Patent US20160108381A1, “DNA POLYMERASES AND MUTANTS THEREOF” (LIFE TECHNOLOGIES CORPORATION, priority 2001, published 2016)

Tests used:
[1] = biological target: T1, Caldicellulosiruptor sp. strain Rt69B.1 (RT69B) DNA polymerase, SEQ ID NO:19 (Caldicellulosiruptor saccharolyticus, UniProt Q6X9R7); test: Steady-state kinetics, DNA- and RNA-dependent polymerase activity; format: biochemical; conditions: Table 40; dTTP; 72 °C
T1 sequence (Q6X9R7 with tags, fused parts or gaps): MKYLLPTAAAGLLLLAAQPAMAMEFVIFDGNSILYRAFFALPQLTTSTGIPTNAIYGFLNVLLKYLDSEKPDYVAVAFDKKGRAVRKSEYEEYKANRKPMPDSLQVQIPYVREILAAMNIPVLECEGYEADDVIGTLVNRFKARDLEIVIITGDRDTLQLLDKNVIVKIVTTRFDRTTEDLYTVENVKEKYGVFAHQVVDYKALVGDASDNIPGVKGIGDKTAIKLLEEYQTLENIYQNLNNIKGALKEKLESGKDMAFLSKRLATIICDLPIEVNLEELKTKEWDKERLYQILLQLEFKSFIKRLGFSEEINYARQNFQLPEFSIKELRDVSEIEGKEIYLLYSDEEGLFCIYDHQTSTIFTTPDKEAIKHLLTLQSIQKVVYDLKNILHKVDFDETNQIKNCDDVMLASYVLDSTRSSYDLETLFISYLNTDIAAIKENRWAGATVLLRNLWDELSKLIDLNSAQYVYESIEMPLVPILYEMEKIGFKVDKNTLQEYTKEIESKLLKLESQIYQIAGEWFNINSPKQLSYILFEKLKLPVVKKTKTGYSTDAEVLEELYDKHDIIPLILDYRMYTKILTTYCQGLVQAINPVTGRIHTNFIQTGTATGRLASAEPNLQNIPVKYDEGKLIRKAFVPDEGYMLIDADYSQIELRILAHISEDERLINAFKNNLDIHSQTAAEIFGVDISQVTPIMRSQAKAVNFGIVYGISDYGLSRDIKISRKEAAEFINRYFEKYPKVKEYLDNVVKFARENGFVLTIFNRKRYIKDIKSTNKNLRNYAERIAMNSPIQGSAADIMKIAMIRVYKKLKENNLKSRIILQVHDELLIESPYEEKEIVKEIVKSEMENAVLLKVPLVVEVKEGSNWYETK
Protocol: (§1) Subcloning of genes for Tok13B, Tok7B, and Rt69B. Subcloning of the genes for Tok13B, Tok7B, and Rt69B DNA polymerase was carried out to remove the pelB leader sequence derived from pET26B. This reduced proteolytic degradation of the DNA polymerases from these genes observed in E. coli when the pelB leader was present. Each DNA polymerase gene was removed from pET26B by restriction digestion of the plasmid DNA with NcoI, which cut at the 5′ end of the gene, and BamHI, which cut downstream of the translation stop codon at the 3′ end of the gene. The NcoI-BamHI fragment was ligated into the NcoI and BamHI sites of expression vector pET14B (Novagen Inc., Madison, Wis.). The recombinant plasmids were transformed into the E. coli expression host BL21-AI (Invitrogen Corporation, Carlsbad, Calif.).
(§2) Purification of CA2, B.EA1, Rt41A, Dth, Tok13B, Tok7B, and Rt69B DNA polymerase. E. coli cells (BL21SI, Invitrogen Corporation, Carlsbad, Calif.) bearing the plasmid pET26B with the gene for CA2, B.EA1, Rt41A, or Dth DNA polymerase were grown in 2.8-1 Fembach flasks in LB broth containing no salt and 50 μg/ml kanamycin at 37° C. After the culture reached an A590 of 1.2, expression of DNA polymerase was induced with 0.3 M NaCl for 3 hr. Cells were harvested by centrifugation and stored at −70° C. […]

[2] = biological target: T2, Caldicellulosiruptor sp. strain Tok13B.1 (Tok13B) DNA polymerase, SEQ ID NO:17 (Caldicellulosiruptor saccharolyticus, UniProt Q6X9R9); test: as above; format: biochemical; conditions: Table 40; dTTP; 72 °C
T2 sequence (Q6X9R9 with tags, fused parts or gaps): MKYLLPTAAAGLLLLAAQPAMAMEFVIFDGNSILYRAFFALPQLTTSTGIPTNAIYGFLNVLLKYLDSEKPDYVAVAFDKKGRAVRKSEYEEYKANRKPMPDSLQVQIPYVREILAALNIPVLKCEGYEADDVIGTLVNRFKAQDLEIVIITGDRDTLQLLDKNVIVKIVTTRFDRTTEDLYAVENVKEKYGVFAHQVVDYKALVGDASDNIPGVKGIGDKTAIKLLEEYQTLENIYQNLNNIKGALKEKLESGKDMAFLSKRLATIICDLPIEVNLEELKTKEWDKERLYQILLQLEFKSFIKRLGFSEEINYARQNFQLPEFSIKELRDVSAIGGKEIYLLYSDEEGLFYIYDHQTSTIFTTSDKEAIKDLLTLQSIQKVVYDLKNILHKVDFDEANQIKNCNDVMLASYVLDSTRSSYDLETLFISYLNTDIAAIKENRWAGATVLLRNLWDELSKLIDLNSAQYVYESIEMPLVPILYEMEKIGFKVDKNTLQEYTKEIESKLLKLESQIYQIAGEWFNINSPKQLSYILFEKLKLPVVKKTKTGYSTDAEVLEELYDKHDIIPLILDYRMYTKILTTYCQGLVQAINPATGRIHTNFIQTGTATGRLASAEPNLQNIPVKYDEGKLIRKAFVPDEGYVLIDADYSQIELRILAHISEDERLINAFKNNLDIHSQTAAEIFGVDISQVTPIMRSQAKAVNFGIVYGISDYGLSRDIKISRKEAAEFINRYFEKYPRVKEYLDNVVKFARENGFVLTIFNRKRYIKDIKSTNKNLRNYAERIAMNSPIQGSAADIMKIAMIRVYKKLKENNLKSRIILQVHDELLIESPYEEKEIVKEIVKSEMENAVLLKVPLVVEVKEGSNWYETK
Protocol: as §1, §2

## Cc1cn([C@H]2C[C@H](O)[C@@H](COP(=O)(O)OP(=O)(O)OP(=O)(O)O)O2)c(=O)[nH]c1=O [dTTP]
[1]
  kCAT Ratio (RNA/DNA): 0.03
[2]
  kCAT Ratio (RNA/DNA): 0.03
